Data taken from patent US6083973A, “Methods for inhibiting mucin secretion using RAR α selective antagonists” (Syntex (U.S.A.) Inc., priority 1999, dated 2000).

Tests used:
[1] = biological target: T1, RARβ (Homo sapiens, UniProt P10826); assay: Transactivation of RARβ relative to ATRA; format: biochemical; settings: both compounds at 10000 nM, read-out: Transactivation EC50 % MAX, RARβ
T1 sequence (P10826 1-455): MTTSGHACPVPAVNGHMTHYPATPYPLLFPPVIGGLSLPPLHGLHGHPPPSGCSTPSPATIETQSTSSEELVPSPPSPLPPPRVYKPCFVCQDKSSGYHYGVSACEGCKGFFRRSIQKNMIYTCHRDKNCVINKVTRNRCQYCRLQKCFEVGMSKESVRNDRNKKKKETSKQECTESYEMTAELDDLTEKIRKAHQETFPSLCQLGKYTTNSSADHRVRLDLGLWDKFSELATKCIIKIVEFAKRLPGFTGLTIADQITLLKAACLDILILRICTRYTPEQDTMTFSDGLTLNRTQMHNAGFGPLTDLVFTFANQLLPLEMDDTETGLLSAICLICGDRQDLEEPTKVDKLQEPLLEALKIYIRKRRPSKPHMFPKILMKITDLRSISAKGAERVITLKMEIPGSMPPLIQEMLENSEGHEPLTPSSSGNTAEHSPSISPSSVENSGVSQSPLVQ
Method: (§1) As used herein, the term "EC50 " of a retinoid for a retinoic acid receptor means the transactivation by the retinoid of the particular retinoic acid receptor under consideration relative to the transactivation of that same receptor by ATRA under identical conditions with both retinoids at the same concentration (1000 nM or 10000 nM depending on the highest concentration tested). Values are expressed as a percentage.
(§2) As used herein, the term "transactivation" refers to the ability of a retinoid to activate the transcription of a gene where the gene transcription is initiated by the binding of a ligand to the particular retinoic acid receptor being tested, i.e., RARα, RARβ, or RARγ. Determining the ability of a compound to transactivate a retinoic acid receptor may be performed by methods known to those of skill in the art. Examples of such methods are found in Bernard, et al. Biochem. Biophys. Res. Commun., 186:977-983 (1992) and C. Apfel, et al. Proc. Nat. Sci. Acad. (USA), 89:7129-7133 (1992).
(§3) EC50 's were determined relative to ATRA, with both compounds at 10000 nM. Values are expressed as a percentage of transactivation relative to ATRA.

[2] = biological target: T2, RARα (Homo sapiens, UniProt P10276); assay: Transactivation of RARα relative to ATRA; format: biochemical; settings: both compounds at 10000 nM, read-out: Transactivation EC50 % MAX, RARα
T2 sequence (P10276 1-462): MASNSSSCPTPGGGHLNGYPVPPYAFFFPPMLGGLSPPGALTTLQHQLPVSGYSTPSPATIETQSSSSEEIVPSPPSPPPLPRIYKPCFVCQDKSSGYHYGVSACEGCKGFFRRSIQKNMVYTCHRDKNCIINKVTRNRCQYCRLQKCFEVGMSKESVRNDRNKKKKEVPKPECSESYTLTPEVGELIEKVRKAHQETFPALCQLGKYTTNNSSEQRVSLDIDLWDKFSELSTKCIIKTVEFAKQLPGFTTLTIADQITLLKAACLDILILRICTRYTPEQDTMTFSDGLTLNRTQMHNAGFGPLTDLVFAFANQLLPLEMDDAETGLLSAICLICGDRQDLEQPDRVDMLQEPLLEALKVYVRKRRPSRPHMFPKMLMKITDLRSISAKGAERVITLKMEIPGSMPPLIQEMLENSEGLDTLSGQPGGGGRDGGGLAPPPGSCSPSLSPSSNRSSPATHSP
Method: as §1, §2, §3

[3] = biological target: T1, RARβ; assay: RAR binding, competition with labelled ATRA, β
Method: (§4) The term "IC50 " of a retinoid for a retinoic acid receptor refers to the concentration of the retinoid at which binding by ATRA to that particular receptor is inhibited by 50%. Binding is measured by competition of the retinoid with labelled ATRA.
(§5) The RARα antagonist selectivity of a compound can be determined by routine ligand binding assays known to one of skill in the art such as described in C. Apfel, et al. Proc. Nat. Sci. Acad. (USA), 89:7129-7133 (1992); M. Teng, et al, J. Med. Chem., 40:2445-2451 (1997); and PCT Publication WO 96/30009.

[4] = biological target: T2, RARα; assay: RAR binding, competition with labelled ATRA, α
Method: as §4, §5

[5] = biological target: T3, RARγ (Homo sapiens, UniProt P13631); assay: RAR binding, competition with labelled ATRA, γ
T3 sequence (P13631 1-454): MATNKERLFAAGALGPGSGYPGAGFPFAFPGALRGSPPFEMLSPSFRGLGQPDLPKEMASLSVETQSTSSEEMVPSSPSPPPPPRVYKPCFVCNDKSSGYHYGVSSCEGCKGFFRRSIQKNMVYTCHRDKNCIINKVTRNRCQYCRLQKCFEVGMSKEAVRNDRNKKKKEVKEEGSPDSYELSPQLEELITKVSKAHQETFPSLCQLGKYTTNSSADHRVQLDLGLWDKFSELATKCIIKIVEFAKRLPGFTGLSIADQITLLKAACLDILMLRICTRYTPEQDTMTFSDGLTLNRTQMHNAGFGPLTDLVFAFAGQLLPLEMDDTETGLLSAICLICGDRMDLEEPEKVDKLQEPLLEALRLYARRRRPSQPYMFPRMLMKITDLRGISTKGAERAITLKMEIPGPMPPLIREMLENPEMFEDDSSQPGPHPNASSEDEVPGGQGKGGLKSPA
Method: as §4, §5

[6] = biological target: T3, RARγ; assay: Transactivation of RARγ relative to ATRA; format: biochemical; settings: both compounds at 10000 nM, read-out: Transactivation EC50 % MAX, RARγ
Method: as §1, §2, §3

[7] = test system: MUC5AC; assay: MUC5AC gene transactivation in NHBE cells, RT-PCR; format: cell-based, human; settings: even at the highest dose, 1×10^-6 M, Example 2
Method: (§6) Transactivation of mucin genes in normal primary human bronchial epithelial cells (NHBE) was performed as described by Gray et al. Am. J. Respir. Biol., 14:104-112 (1996). Primary human airway epithelial cells were cultured on porous Transwell membranes (Corning/Costar) in defined media in the absence of all-trans retinoic acid (ATRA) for 7 days. After seven days, fresh media±ATRA or selective retinoid, was added to the basal culture compartment to create an air-liquid interface (ALI). ATRA and/or selective retinoids were used at a concentration or 1×10^-7 M. The selective retinoids used were: Compound X (RARα selective agonist), RXR agonist (SRI 11217) and anti-AP1 retinoid (SRI 11302). After seven additional days of culture the media was harvested for analysis of secreted mucin gene product using specific ELISA as previously described (Gray et al). The cell layer was lysed using a guanidinium-based buffer (TRIZOL/Sigma) for RNA extraction and analysis. Amplification of MUC2 and MUC5AC RNA was performed by standard RT-PCR using appropriate selective primer and mimics pairs (Guzman et al., Am. J. Physiol. 271 (Lung Cell Mol Physiol.15): L1023-L1028 (1996) and PCR products were detected in ethedium bromide stained agarose gels.
(§7) Transactivation of mucin genes in NHBE was performed as described above with the exception that media was supplemented with RAR alpha (RARα), beta (RARβ), or gamma (RARγ)-selective retinoids on days 7 through day 14. The RAR alpha (RARα), beta (RARβ), or gamma (RARγ)-selective retinoids were compounds X, Y and CD-437 respectively.
(§8) Transactivation of mucin genes in NHBE was performed as described above. On days 7 through day 14 cells were cultured with 1×10^-6 M RARα antagonist, Compound Z, alone or in combination with 1×10^-7 M ATRA or RARα selective agonist, Compound X. The effects on mucin gene transactivation and expression were determined by RT-PCR and ELISA as described above. RARα selective antagonist, Compound Z, had no effect on MUC2 or MUC5AC gene expression.

[8] = test system: MUC2; assay: MUC2 gene transactivation in NHBE cells, RT-PCR; format: cell-based, human; settings: even at the highest dose, 1×10^-6 M, Example 2
Method: as §6, §7, §8

| SMILES | % transactivation relative to ATRA at 10 µM [1] [%] | Emax at 10 µM [2] [%] | IC50 [3] [µM] | IC50 [4] [µM] | IC50 [5] [µM] | Emax at 10 µM [6] [%] | Induction of MUC5AC [7] | Induction of MUC2 [8] |
| --- | --- | --- | --- | --- | --- | --- | --- | --- |
| CCCCCCCOc1cc2c(cc1/C(C)=C/C=C/C(C)=C/C(=O)O)C(C)(C)CCS2 | 17 | 27 | < 10 | 0.2 | < 10 | 36 | – | – |
| CCCCCCCOc1cc2c(cc1-c1ccc3cc(C(=O)O)ccc3c1)C(C)(C)CCS2(=O)=O | 17 | 8 | 2.8 | 0.36 | 1.4 | 14 | – | – |
| CCCCCCCOc1cc2c(cc1/C(C)=C/c1ccc(C(=O)O)cc1)C(C)CCCS2(=O)=O (stereo not drawn) | 7 | 5 | 5.1 | 0.53 | 3 | – | – | – |
| CCCCCCCOc1cc2c(cc1C#Cc1ccc(C(=O)O)cc1)C(C)(C)CCS2(=O)=O | 6 | 18 | 3.5 | 0.24 | 2.9 | 20 | – | – |
| CCCCCCCOc1cc2c(cc1/C(C)=C/C=C/C(C)=C/C(=O)O)C(C)(C)CC[S+]2[O-] (stereo not drawn) | 10 | 13 | > 10 | 0.44 | 3.7 | 11 | – | – |
| CCCCCCCCc1cc2c(cc1/C(C)=C/c1ccc(C(=O)O)cc1)C(C)(C)CCCS2(=O)=O | 13 | 18 | 3.3 | 0.2 | 1.8 | 36 | – | – |
| CCCCCCCOc1cc2c(cc1\C(C)=C/C=C/C(C)=C/C(=O)O)C(C)(C)CCS2(=O)=O | 31 | 24 | > 10 | 0.45 | > 10 | 20 | – | – |
| CCCCCCOc1cc2c(cc1/C(C)=C/C=C/C(C)=C/C(=O)O)C(C)(C)CCCS2(=O)=O | 32 | 20 | 2.5 | 0.25 | 1.3 | 46 | – | – |
| CCCCCCCCOc1cc2c(cc1/C(C)=C/c1ccc(C(=O)O)cc1)C(C)(C)CCCS2(=O)=O | 21 | 8 | 6.9 | 0.39 | 2.6 | 25 | – | – |
| CCCCCCOc1cc2c(cc1/C(C)=C/c1ccc(C(=O)O)cc1)C(C)(C)CCCS2(=O)=O | 37 | 14 | 3.8 | 0.58 | 2.6 | 54 | – | – |
| O=C(O)c1ccc2cc(-c3ccc(O)c(C45CC6CC(CC(C6)C4)C5)c3)ccc2c1 [CD-437, 6-[3-(1-adamantyl)-4-hydroxyphenyl]-2-naphthalenecarboxylic acid] | – | – | – | – | – | – | minimal | minimal |

Further compounds by falling IC50 [4], results first:

| % transactivation relative to ATRA at 10 µM [1] [%] | Emax at 10 µM [2] [%] | IC50 [3] [µM] | IC50 [4] [µM] | IC50 [5] [µM] | Emax at 10 µM [6] [%] | SMILES | Induction of MUC5AC [7] | Induction of MUC2 [8] |
| --- | --- | --- | --- | --- | --- | --- | --- | --- |
| 7 | 14 | 3 | 0.19 | 2.5 | 18 | CCCCCCCOc1cc2c(cc1/C(C)=C/c1ccc(C(=O)O)cc1)C(C)(C)CCCS2(=O)=O | – | – |
| 20 | 12 | 6.4 | 0.18 | 2.2 | 30 | CCCCCCCOc1cc2c(cc1/C(C)=C/C=C/C(C)=C/C(=O)O)C(C)(C)CCCS2(=O)=O | – | – |
| 22 | 11 | 6.9 | 0.16 | 3.4 | 24 | CCCCCCCOc1cc2c(cc1/C(C)=C/c1ccc(C(=O)O)cc1)C(C)(C)CS2(=O)=O | – | – |
| 3 | 16 | – | 0.077 | 4.2 | 9 | CCCCCCCOc1cc2c(cc1/C(C)=C/c1ccc(C(=O)O)cc1)C(C)(C)CCS2(=O)=O [drawing 3] | – | – |
| 15 | 16 | 1.9 | 0.07 | 2.3 | 32 | CCCCCCCCc1cc2c(cc1/C(C)=C/c1ccc(C(=O)O)cc1)C(C)(C)CCS2(=O)=O | – | – |
| 35 | 11 | 4.9 | 0.047 | 1 | 33 | CCCCCCCCc1cc2c(cc1/C(C)=C/C=C/C(C)=C/C(=O)O)C(C)(C)CCCS2(=O)=O | – | – |
| 14 | 9 | 5.1 | 0.027 | 2.4 | 16 | CCCCCCCOc1cc2c(cc1/C(C)=C/C=C/C(C)=C/C(=O)O)C(C)(C)CCS2(=O)=O [drawing 4] | – | – |
